What was measured:
[1] = tested on: fall armyworm (Spodoptera frugiperda) larvae; assay: Initial screen: lyophilized yeast cultures expressing lycotoxin-1 / NNR mutants mixed with insect diet, armyworm larvae assay; details: lyophilized yeast culture in pYES2-DEST52/INVSc1 mixed with rehydrated insect diet, oral, 20 newly hatched larvae
[2] = tested on: fall armyworm (Spodoptera frugiperda) larvae; assay: Lethality of single INVSc1-XI-Lyt-1 yeast strain isolates expressing Lyt-1 toxin variants on xylose plates to fall armyworm larvae; format: in vivo; details: for relative mortality compared with mutants C3 and A6 (frequency analysis) / mortality compared pairwise (C6 vs B9; A6 vs C3), frequency analysis: SAS Proc Freq, data adjusted for colony size, P<0.05; for relative mortality compared with mutants C3 and A6 (frequency analysis): 20-insect sample; for state of armyworms on plates containing cultures expressing variants: compared with INVSc1-XI control plate; for Day 1 (% killed) / Day 2 (% killed): single isolates grown 3 days on CM xylose URA/TRP plates, 4 plates averaged, 20 larvae/plate, adjusted for colony size
Procedure: Samples of the transformation reactions from each of the multiplex wells were recovered on 86×128 mm rectangular CM glucose URA/TRP-selective plates for 2 days at 30° C. and diluted 10.000-fold in sterile water; then 200 μl was spotted onto the respective CM xylose URA/TRP-selective plates and allowed to grow for 3 days to generate a yeast growth area (spot) expressing toxins. The size of the spot was recorded and used to normalize the percent killed, since the percent is a function of the amount of yeast encountered. Twenty newly hatched armyworm larvae were added to the growth spot on the plate, the plate was covered with a lid having five small 0.4 mm openings in the center protected with cotton organdy cloth, and the lid was sealed to the plate with Microseal ‘A’ film (MJ Research, Waltham, Mass.) cut so that a gasket 5-mm wide could seal the edges. The plates were scored for the number of dead armyworms daily after adding the larvae until the assay was ended. Results from days 1 and 2 were of the greatest importance for a commercially viable insecticide. The multiplexed wells having the mutants showing greatest lethality (positions 8, 9, and 10) were selected and the multiplexed wells containing the lycotoxin-1 inserts in pENTR D TOPO corresponding to those positions were transformed into TOP 10 cells, single colonies picked from spread plates, and a plasmid preparation performed. The sequences of 90 AASM variant single isolates picked from the three most lethal multiplexed wells were determined. Forty-five of these had inserts with complete sequences in the correct orientation. Nine were C3, while 36 of them were unique variants and these were selected for the second lethality assay. They were moved into pSUMOduo/TRP via LR clonase, retransformed into INVSc1-XI yeast, and recovered on CM glucose URA/TRP-selective plates. Single colonies with sequence-verified inserts were picked into CM glucose URA/TRP-selective liquid medium, grown, and diluted 10,000-fold. A 100 μl sample was spotted onto CM xylose URA/TRP-selective plates and analyzed for lethality, along with samples containing C3, in quadruplicate, with 20 newly hatched armyworm larvae added to each plate. The variants were scored for dead armyworms and the percent killed was calculated.
Single colonies were picked from the multiplexed wells for the mutation positions showing greatest lethality. Growing yeast spots containing the individual variants were tested for lethality to fall armyworm larvae. Percent dead on day 2 for C3, B9, A6, and C6 were 71, 97, 74, and 100%, respectively (Table 2). The two AASM mutants B9 and C6 were more lethal than the NNR mutant C3. The numbers are normalized for diameter of the colony on the xylose plates. […] Frequency analysis was performed using SAS Proc Freq (SAS Institute 1999) with data adjusted for colony size and assuming a conservative 20-insect sample for each treatment.

[3] = tested on: INVSc1-XI-Lyt-1 yeast cells; assay: Scanning electron microscopy of yeast strains expressing variants; format: cell-based, Saccharomyces cerevisiae; details: INVSc1-XI-Lyt-1 yeast strain expressing the variant
Procedure: Yeast cells from the plate were suspended in saline (0.85% NaCl) and centrifuged to remove the residual medium. Following a modified procedure of Bang and Pazirandeh [Bang and Pazirandeh. Physical properties and heavy metal uptake of encapsulated Escherichia coli expressing a metal binding gene (NCP). J. Microencapsul. 1999; 16(4): 489-499], the cell pellet was suspended and fixed in 2.5% glutaraldehyde prepared in 100 mM cacodylate buffer, pH 7.2, for 1 h on ice. To remove remaining glutaraldehyde, the cells were rinsed with the buffer twice and then with distilled water once, allowing several minutes for each step. The cells were dehydrated in solutions containing 50, 70, 80 and 100% ethanol successively for 15 min for each treatment. Cells were mounted on the aluminum stub and placed in the desiccator to dry overnight or until needed. The samples were subjected to scanning electron microscopy and analysis (Zeiss Supra 40 VP).

transformed host cell = assay: Expression of variant peptide in transformed host cell (membrane crossing, intracellular membranes); format: cell-based; details: expression in a transformed host cell

| Sequence | lethality to armyworms in initial screening [1] | relative mortality compared with mutants C3 and A6 (frequency analysis) [2] | state of armyworms on plates containing cultures expressing variants [2] | Day 1 (% killed) [2] [%] | Day 2 (% killed) [2] [%] | Day 2 (% killed) ([2]; listed as XI Lyt-1 B9) [%] | cell surface morphology in scanning electron micrographs [3] | mortality compared pairwise (C6 vs B9; A6 vs C3), frequency analysis [2] | Day 2 (% killed) ([2]; listed as XI Lyt-1 C6) [%] | build-up of intracellular membranes (tubules) on expression (transformed host cell) | Day 2 (% killed) ([2]; listed as XI Lyt-1 A6) [%] |
| --- | --- | --- | --- | --- | --- | --- | --- | --- | --- | --- | --- |
| IWLTALKFLGKHAAKHLAKQQLSKL [wild-type lycotoxin-1] | not found to be lethal |  |  |  |  |  |  |  |  |  |  |
| IWLTALKFLQKHAAKHLAKHSLSPW (Completely synthesized from synthetic oligonucleotides) [B9, lycotoxin-1 variant with mutations G10Q, Q20H, Q21S, K24P, L25W] |  | significantly greater than mortality caused by mutants C3 and A6 | much smaller and mostly or all dead | 0.0 | 97 | 97.2 | numerous bulges and irregularities on the surface |  |  |  |  |
| IWLTALKFSGKHAAKHLAKQQLSPW (Completely synthesized from synthetic oligonucleotides) [C6, lycotoxin-1 variant with mutations L9S, K24P, L25W] |  | significantly greater than mortality caused by mutants C3 and A6 | much smaller and mostly or all dead | 3.7 | 100 |  | numerous bulges and irregularities on the surface | not significantly different | 100.0 | significant build-up of intracellular membranes |  |
| IWLTALKHLGKHAAKHLAKQQLSPW (Completely synthesized from synthetic oligonucleotides) [A6, lycotoxin-1 variant with mutations F8H, K24P, L25W] |  |  | much smaller and mostly or all dead | 13.2 | 74 |  | numerous bulges and irregularities on the surface | not significantly different |  |  | 74.1 |

Source: patent US8334366B1, “Mutant lycotoxin-1 peptide sequences for insecticidal and cell membrane altering properties” (The United States of America, as represented by the …, priority 2009, dated 2012)
